{"source": "patent US20210059959A1", "about": "“USE OF CANNABINOIDS IN THE TREATMENT OF MENTAL DISORDERS” (GW Pharma Limited, priority 2015, published 2021)", "tested_on": "participants with schizophrenia or related psychotic disorder", "experiment": "Brief Assessment of Cognition in Schizophrenia (BACS), double-blind placebo-controlled study of CBD as adjunctive therapy", "format": "in vivo, human", "conditions": "all patients", "protocol": "Example 1 below describes the use of a highly purified cannabis extract comprising cannabidiol (CBD) in a human clinical trial. Example 1 describes data produced in a double-blind, randomised, placebo-controlled, parallel group study of highly purified CBD as adjunctive therapy in first line treatment of schizophrenia or related psychotic disorder.\nAn eight-week, multi-centre, double-blind, randomised, placebo-controlled, parallel group study was conducted with the aim to determine the efficacy, safety and tolerability of highly purified CBD as adjunctive therapy in first line treatment of schizophrenia or related psychotic disorder.\nThis study evaluated the efficacy of highly purified CBD compared with placebo on the participant's PANSS Total score, ‘P’, ‘N’, ‘G’, SANS and BACS scores.\nChanges from baseline in PANSS scores (Total, ‘P’, ‘N’ and ‘G’), SANS and BACS were recorded at the start of the study (baseline) and at the end of treatment (after 6 weeks treatment with CBD or placebo).\nFor inclusion in the study participants were required to be male or female aged 18 to 65 years, diagnosed with schizophrenia or a related psychotic disorder (such as schizoaffective or schizophreniform disorder) as defined by the Diagnostic and Statistical Manual of Mental Disorders Version 4. Participants must have been treated for a minimum of four-weeks and be on a stable dose of their current antipsychotic medication. […] A PANSS score in excess of 60 infers that the patient has symptoms related to schizophrenia or related disorders.\nThe participants were randomised to one of two treatment groups which each consisted of 39 participants. Treatment was administered as either 5 ml CBD (100 mg/ml) oral solution to be taken twice daily or 5 ml matched placebo oral solution to be taken twice daily.\nBrief Assessment of Cognition in Schizophrenia (BACS)\nThe BACS is an instrument used to assess the aspects of cognition found to be most impaired and most strongly correlated with outcome in participants with schizophrenia or related psychotic disorder. The BACS yields a high completion rate in participants with schizophrenia or related psychotic disorder.\nThe BACS consists of six domains: verbal memory; working memory; motor speed; verbal fluency; attention and speed information processing and executive functions. A score is obtained for each domain and a composite summary score is also calculated as the average of the scores from the six domains. An increase in score is indicative of an improvement in cognition.\nThis instrument was assessed at each assessment visit (Visits 1-4)."}
{"smiles": "C=C(C)[C@@H]1CCC(C)=C[C@H]1c1c(O)cc(CCCCC)cc1O", "note": "[CBD, Cannabidiol]", "values": [{"measurement": "Change in baseline scores, BACS composite score", "setting": "CBD adjunct, 6 weeks", "result": 3.5}, {"measurement": "Change in baseline scores, BACS sub-domain 1 Verbal memory", "setting": "CBD adjunct, 6 weeks", "result": 2.1}, {"measurement": "Change in baseline scores, BACS sub-domain 2 Working memory", "setting": "CBD adjunct, 6 weeks", "result": 1.8}, {"measurement": "Change in baseline scores, BACS sub-domain 3 Motor speed", "setting": "CBD adjunct, 6 weeks", "result": 6.2}, {"measurement": "Change in baseline scores, BACS sub-domain 4 Verbal fluency", "setting": "CBD adjunct, 6 weeks", "result": 4.3}, {"measurement": "Change in baseline scores, BACS sub-domain 5 Attention and speed information processing", "setting": "CBD adjunct, 6 weeks", "result": 4.4}, {"measurement": "Change in baseline scores, BACS sub-domain 6 Executive function", "setting": "CBD adjunct, 6 weeks", "result": 2.0}, {"measurement": "Change in baseline scores, BACS sub-domain 3 Motor speed: difference", "setting": "CBD vs placebo, P = 0.0439", "result": "(4.2)"}, {"measurement": "Change in baseline scores, BACS composite score: difference", "setting": "CBD vs placebo, P = 0.0677", "result": "(1.3)"}, {"measurement": "Change in baseline scores, BACS sub-domain 6 Executive function: difference", "setting": "CBD vs placebo, P = 0.0682", "result": "(1.4)"}, {"measurement": "Change in baseline scores, BACS sub-domain 2 Working memory: difference", "setting": "CBD vs placebo, P = 0.1414", "result": "(1.0)"}, {"measurement": "Change in baseline scores, BACS sub-domain 5 Attention and speed information processing: difference", "setting": "CBD vs placebo, P = 0.5915", "result": "(0.9)"}, {"measurement": "Change in baseline scores, BACS sub-domain 4 Verbal fluency: difference", "setting": "CBD vs placebo, P = 0.8059", "result": "(0.4)"}, {"measurement": "Change in baseline scores, BACS sub-domain 1 Verbal memory: difference", "setting": "CBD vs placebo, P = 0.9933", "result": "(0.1)"}]}
